Starred links: 1 amine or outer side, 2 acyl side, 3 side chain; linkers in the order of their positions; H or OH if unused. Non-standard residues stand in square brackets, D forms with d. Residues, ends and D or L forms follow the SMILES beside them. Groups on a side chain read outwards from the residue. *: point of attachment. C18 diacid = O=C(O)CCCCCCCCCCCCCCCCC(=O)*; C16 diacid = O=C(O)CCCCCCCCCCCCCCC(=O)*; γGlu = O=C(O)[C@H](CCC(=O)[*:2])N[*:1]; Glutaryl = O=C(CCCC(=O)[*:2])[*:1]; Nle = CCCC[C@H](N)C(=O)O; AEEA = NCCOCCOCC(=O)O; Aib = CC(C)(N)C(=O)O
Experiments:
human GIP receptor = target: T1, human GIP receptor (Homo sapiens, UniProt P48546); test: cAMP assay Alternative 2 (Gaddum assay), antagonist potency pKb; type: cell-based; conditions: Table 2C; Gaddum equation, single antagonist dose; HEK-293 hGIPR; read-out: nM (Kb)
T1 construct: host or cells: HEK-293 cells, transient transfection (Lipofectamine 2000), cDNA in pCMV-Script vector
T1 sequence (P48546 22-466): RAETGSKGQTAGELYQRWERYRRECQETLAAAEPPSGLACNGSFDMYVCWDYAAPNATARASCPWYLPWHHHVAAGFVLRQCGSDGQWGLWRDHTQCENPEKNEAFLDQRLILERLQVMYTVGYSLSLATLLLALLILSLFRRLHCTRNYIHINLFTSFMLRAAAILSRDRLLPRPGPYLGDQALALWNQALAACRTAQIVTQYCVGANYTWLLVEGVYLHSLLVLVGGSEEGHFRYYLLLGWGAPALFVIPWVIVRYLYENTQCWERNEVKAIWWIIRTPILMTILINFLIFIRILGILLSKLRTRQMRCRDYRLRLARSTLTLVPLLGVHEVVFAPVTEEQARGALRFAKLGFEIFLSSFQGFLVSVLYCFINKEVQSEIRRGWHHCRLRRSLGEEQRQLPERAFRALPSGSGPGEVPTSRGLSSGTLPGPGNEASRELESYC
Experimental: HEK293 cells were cultured in 10% CO2 and 37° C. in Dulbecco's modified Eagle's medium supplemented with 10% fetal bovine serum, 2 mM glutamine, 180 units/ml penicillin, and 45 µg/ml streptomycin. Transient transfection with hGIPR for the CisBio assay from Table 2C was performed by using Lipofectamine 2000.
Antagonist potency (pKb) was estimated in a functional setting. The estimated pKb values were calculated from the shifts of the agonist-concentration-response curves in the presence of a single dose of GIP peptide antagonists using the Gaddum equation: pKb=log(DR-1)-log(B), where DR (EC50′/EC50) is the dose ratio calculated from EC50 of GIP1-42 obtained in the presence and absence (EC50) of antagonist, and B is the antagonist concentration used.
The in vitro functional assessment of compounds towards human GIP receptor was determined in HEK-293 cells transiently expressing the receptor. On the day of the assay, cells were resuspended in HBSS buffer (Gibco, 14025-50) supplemented with […] (Gibco, 15630-106), 0.1% Pluronic F-68 (Gibco, 24040-032) and 0.1% casein (Sigma, C4765), and plated in 384-well plates at a density of 3500 cells/well. The GIP peptide analogues of the present disclosure were diluted in HBSS buffer supplemented with 20 mM HEPES, 0.1% pluronic, 0.1% casein and 500 uM IBMX. […] Increasing dose of agonist (GIP1-42) was subsequently added to cells and incubated for additionally 30 min at 37° C. The intracellular cAMP was quantitatively determined using the CisBio cAMP Dynamic 2 HTRF Assay Kit. The assay is based on a competition between native cAMP produced by cells and cAMP labeled with the dye d2 for binding to a cryptate labeled antibody. The specific signal (i.e. energy transfer signal) is inversely proportional to the concentration of cAMP in the sample.
The cAMP-d2 conjugate and the antibody anti-cAMP-Cryptate, both diluted in lysis buffer provided in the kit, were added to the cells according to the manufacturer's protocol. The resulting competitive assay was incubated for 60 minutes at room temperature, and the signal was detected by using a PerkinElmer Envision® instrument with excitation at 320 nm and emission at 665 nm and 620 nm. The HTRF ratio (emission at 665 nm/620 nm*10,000) is inversely proportional to the amount of cAMP present and is converted to nM cAMP per well using a cAMP standard curve.

[1] = Solubility by visual inspection of peptide solutions; type: physicochemical
Outline: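 Peptides dissolved at 1, 5, 7.5 or 15 mg/ml in 50 mM sodium phosphate pH 7.4 or water adjusted to pH 7.4 with NaOH, with gentle mixing. Immediate solubility judged visually as a clear, colorless solution.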

[2] = Physical stability: fibril formation in Thioflavin T (ThT) assay with agitation; type: physicochemical; conditions: 25° C., agitation
Outline: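 Peptides at 1, 5, 7.5 or 15 mg/ml in 50 mM sodium phosphate pH 7.4 or in water adjusted to pH 7.4 with NaOH, filtered 0.22 μm, with ThT added. Wells held a 3 mm silica bead under 300 rpm orbital agitation at 25° C. Emission at 486 nm tracked continuously; lag time = 10% of transition above baseline.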

Compound	Kb (human GIP receptor) [nM]	Visual appearance ([1]; 7.5 mg/ml, Na, MilliQ (8))	Visual appearance ([1]; 15 mg/ml, Na, MilliQ (8))	Avr lag time (h) ([2]; 7.5 mg/ml, Na, MilliQ (8))	Avr lag time (h) ([2]; 15 mg/ml, Na, MilliQ (8))	Visual appearance ([1]; 1 mg/ml, TFA, Phosphate (7.4))	Avr lag time (h) ([2]; 1 mg/ml, TFA, Phosphate (7.4))	Avr lag time ([2]; 1 mg/ml, TFA, Phosphate (7.4)) [h]
CC[C@H](C)[C@H](NC(=O)[C@H](CCCCN)NC(=O)[C@H](CCC(=O)O)NC(=O)[C@H](CC(C)C)NC(=O)C(C)(C)NC(=O)[C@@H](NC(=O)[C@H](CO)NC(=O)[C@H](Cc1ccc(O)cc1)NC(=O)[C@H](CCC(=O)O)NC(=O)[C@H](CO)NC(=O)[C@@H](NC(=O)[C@H](Cc1ccccc1)NC(=O)[C@@H](NC(=O)CNC(=O)[C@@H](N)CCC(=O)O)[C@@H](C)O)[C@@H](C)CC)[C@@H](C)CC)C(=O)N[C@@H](CCCCNC(=O)C(C)(C)NC(=O)CCCCCCCCCCCCCCC(=O)O)C(=O)N[C@@H](CCC(N)=O)C(=O)N[C@@H](CCC(N)=O)C(=O)N[C@@H](CCC(=O)O)C(=O)N[C@@H](Cc1ccccc1)C(=O)N[C@H](C(=O)N[C@@H](CCC(=O)O)C(=O)N[C@@H](Cc1c[nH]c2ccccc12)C(=O)N[C@@H](CC(C)C)C(=O)N[C@@H](CC(C)C)C(=O)N[C@@H](C)C(=O)N[C@@H](CCC(N)=O)C(=O)N[C@@H](CCCCN)C(=O)N1CCC[C@H]1C(=O)N[C@@H](CO)C(=O)N[C@@H](CO)C(=O)NCC(=O)N[C@@H](C)C(=O)N1CCC[C@H]1C(=O)N1CCC[C@H]1C(=O)N1CCC[C@H]1C(=O)N[C@@H](CO)C(=O)O)C(C)C [AT720] (H-EGTFISEYSI[Aib]LEKIK([Aib-C16 diacid])QQEFVEWLLAQKPSSGAPPPS-OH; N-terminus assumed)	0.29	Clear	Clear	fnd (Fnd = fibrils not detected within experiment time (96 hours) with agitation.)	fnd (Fnd = fibrils not detected within experiment time (96 hours) with agitation.)			
CCCC[C@H](NC(=O)C(C)(C)NC(=O)[C@@H](NC(=O)[C@H](CO)NC(=O)[C@H](Cc1ccc(O)cc1)NC(=O)[C@H](CCC(=O)O)NC(=O)[C@H](CO)NC(=O)[C@@H](NC(=O)[C@H](Cc1ccccc1)NC(=O)[C@@H](NC(=O)CNC(=O)CCCC(=O)O)[C@@H](C)O)[C@@H](C)CC)[C@@H](C)CC)C(=O)N[C@@H](CCC(=O)O)C(=O)N[C@@H](CCCCN)C(=O)N[C@H](C(=O)N[C@@H](CCCCNC(=O)CCCCCCCCCCCCCCC(=O)O)C(=O)N[C@@H](CCC(N)=O)C(=O)N[C@@H](CCC(N)=O)C(=O)N[C@@H](CCC(=O)O)C(=O)N[C@@H](Cc1ccccc1)C(=O)N[C@H](C(=O)N[C@@H](CCC(=O)O)C(=O)N[C@@H](Cc1c[nH]c2ccccc12)C(=O)N[C@@H](CC(C)C)C(=O)N[C@@H](CC(C)C)C(=O)N[C@@H](C)C(=O)N[C@@H](CCC(N)=O)C(=O)N[C@@H](CCCCN)C(=O)N1CCC[C@H]1C(=O)N[C@@H](CO)C(=O)N[C@@H](CO)C(=O)NCC(=O)N[C@@H](C)C(=O)N1CCC[C@H]1C(=O)N1CCC[C@H]1C(=O)N1CCC[C@H]1C(=O)N[C@@H](CO)C(=O)O)C(C)C)[C@@H](C)CC [AT755] (Glutaryl-GTFISEYSI[Aib][Nle]EKIK(C16 diacid)QQEFVEWLLAQKPSSGAPPPS-OH)	0.23					Clear	fnd (Fnd = fibrils not detected within experiment time (96 hours) with agitation.)	
CC[C@H](C)[C@H](NC(=O)[C@H](CO)NC(=O)[C@H](Cc1ccc(O)cc1)NC(=O)[C@H](CC(=O)O)NC(=O)[C@H](CO)NC(=O)[C@@H](NC(=O)[C@H](Cc1ccccc1)NC(=O)[C@@H](NC(=O)CNC(=O)[C@@H](N)CCC(=O)O)[C@@H](C)O)[C@@H](C)CC)C(=O)N[C@@H](C)C(=O)N[C@@H](CCSC)C(=O)N[C@@H](CC(=O)O)C(=O)N[C@@H](CCCCN)C(=O)N[C@H](C(=O)N[C@@H](CCCCNC(=O)CCCCCCCCCCCCCCC(=O)O)C(=O)N[C@@H](CCC(N)=O)C(=O)N[C@@H](CCC(N)=O)C(=O)N[C@@H](CC(=O)O)C(=O)N[C@@H](Cc1ccccc1)C(=O)N[C@H](C(=O)N[C@@H](CCC(=O)O)C(=O)N[C@@H](Cc1c[nH]c2ccccc12)C(=O)N[C@@H](CC(C)C)C(=O)N[C@@H](CC(C)C)C(=O)N[C@@H](C)C(=O)N[C@@H](CCC(N)=O)C(=O)N[C@@H](CCCCN)C(=O)O)C(C)C)[C@@H](C)CC [AT749] (H-EGTFISDYSIAMDKIK(C16 diacid)QQDFVEWLLAQK-OH; N-terminus assumed)	2.2					Clear		<24
CC[C@H](C)[C@H](NC(=O)[C@H](CCCCN)NC(=O)[C@H](CCC(=O)O)NC(=O)[C@H](CC(C)C)NC(=O)C(C)(C)NC(=O)[C@@H](NC(=O)[C@H](CO)NC(=O)[C@H](Cc1ccc(O)cc1)NC(=O)[C@H](CCC(=O)O)NC(=O)[C@H](CO)NC(=O)[C@@H](NC(=O)[C@H](Cc1ccccc1)NC(=O)[C@@H](NC(=O)CNC(=O)CCCC(=O)O)[C@@H](C)O)[C@@H](C)CC)[C@@H](C)CC)C(=O)N[C@@H](CCCCNC(=O)COCCOCCNC(=O)COCCOCCNC(=O)CC[C@H](NC(=O)CCCCCCCCCCCCCCCCC(=O)O)C(=O)O)C(=O)N[C@@H](CCC(N)=O)C(=O)N[C@@H](CCC(N)=O)C(=O)N[C@@H](CCC(=O)O)C(=O)N[C@@H](Cc1ccccc1)C(=O)N[C@H](C(=O)N[C@@H](CCC(=O)O)C(=O)N[C@@H](Cc1c[nH]c2ccccc12)C(=O)N[C@@H](CC(C)C)C(=O)N[C@@H](CC(C)C)C(=O)N[C@@H](C)C(=O)N[C@@H](CCC(N)=O)C(=O)N[C@@H](CCCCN)C(=O)N1CCC[C@H]1C(=O)N[C@@H](CO)C(=O)N[C@@H](CO)C(=O)NCC(=O)N[C@@H](C)C(=O)N1CCC[C@H]1C(=O)N1CCC[C@H]1C(=O)N1CCC[C@H]1C(=O)N[C@@H](CO)C(N)=O)C(C)C [AT713] (Glutaryl-GTFISEYSI[Aib]LEKIK([AEEA-AEEA-γGlu-C18 diacid])QQEFVEWLLAQKPSSGAPPPS-NH2)	0.31	Clear	Clear	fnd (Fnd = fibrils not detected within experiment time (96 hours) with agitation.)	fnd (Fnd = fibrils not detected within experiment time (96 hours) with agitation.)	Clear	fnd (Fnd = fibrils not detected within experiment time (96 hours) with agitation.)	
